Experimental findings from US20180325914A1, “INCREASING STORAGE OF VITAMIN A, VITAMIN D AND/OR LIPIDS” (Salk Institute for Biological Studies, priority 2014, published 2018) are described below.

The test system of assay [1] is C57BL/6J mice. The assay is described as follows: CCl4 model of liver fibrosis, therapeutic study. Format: in vivo, mouse. Conditions: JQ1 50 mg/kg IP. On the procedure: (§1) The animals were terminated 72 hours after the final CCl4 injection and whole livers were collected for histological, cytological, biochemical and molecular analyses.
(§2) 5 μm sections of formalin-fixed liver were stained following standard hematoxylin-eosin (H&E) and Sirius Red methods and reviewed by a pathologist who was blinded to the experimental conditions. Fibrosis was scored using the Ishak modified histological activity index (HAI) scoring system. Liver fibrosis was also quantified using Image J software on 10 non-contiguous Sirius Red stained sections. […] fibrosis was quantified using hydroxyproline assay. All images were obtained using a high-resolution Leica DFC420 digital camera mounted on an Olympus microscope equipped with ×4/0.13, ×10/0.30, ×20/0.50 and ×40/0.75 UplanFL N plan objective lenses and processed with the Leica Application Suite. Tissue hydroxyproline content was measured using a kit from Biovision (K555-100).
(§3) Liver samples were deparaffinized and rehydrated in PBS. Following antigen retrieval with the target retrieval solution (Dako, Glostrup, Denmark), endogenous peroxidase activity was blocked by incubation with 0.3% hydrogen peroxide. […]
Therefore, the ability of JQ1 to prevent progression of ongoing liver fibrosis was determined. […]

For assay [2], the system named is p53 2.1.1 cell line in FVB/n hosts. Put plainly: Orthotopic allograft of p53 2.1.1 pancreatic cancer cells. Format: in vivo, mouse. The procedure:
The p53 2.1.1 cell line, a luciferase-expressing cell line derived from autochthonous pancreatic cancer in pure FVB/n mice, was used for orthotopic transplantation into pancreata of immune-competent FVB/n hosts. Cells were resuspended in 50% DMEM+10% FBS, 50% Matrigel and 1,000 cells per mouse were injected into the body of the pancreas. One week after transplantation, transplanted mice were subject to bioluminescence imaging to measure luciferase activity and, thus, tumor burden. […] Mice were imaged again to measure bioluminescence signal (tumor burden) at experimental endpoint; pancreata were removed, weighed, and fixed or flash-frozen for further analysis.

Assay [3] concerns Pancreatic cancer cell lines (AsPc1, MIAPaCa2, PancT and P53 2.1.1). The assay is described as follows: Viability of pancreatic cancer cell lines in astromal or stromal hydrogels (Cell TiterGlo). Format: cell-based. The settings on record: 500 nM JQ1, 72 hours, astromal or stromal culture conditions. The source says:
Pancreatic cancer cell lines (AsPc1, MIAPaCa2, PancT and P53 2.1.1) were embedded in HyStem®-C hydrogels (ESI-BIO) at a concentration of 5×10^5 cells/ml. For astromal hydrogels, Glycosil® and Extralink™ components were resuspended in degassed H2O per manufacturer's procotol, and Glycosil®+degassed H2O+Extralink™ were combined in a 1:1:1 ratio. For the stromal hydrogels, Glycosil®, Gelin-S® (denatured collagens), and Extralink™ components were resuspended in degassed H2O per manufacturer's procotol, and Glycosil®+Gelin-S®+Extralink™ were combined in a 1:1:1 ratio. Pancreatic cancer cells were resuspended in the hydrogels and seeded into 96-well plates, 100 μl/well (5×10^4 cells/well). Triplicate wells were seeded for each condition to be tested. After hydrogel polymerization was evident (30-45 minutes), DMEM+10% FBS was added to astromal wells and conditioned media from cancer-associated PSCs was added to stromal wells. Conditioned media was prepared by growing primary cancer-associated PSCs (grown out of human pancreatic tumors) to confluency, changing to fresh DMEM+10% FBS, then collecting the media after 48 hours and passing through a 0.45 um filter to clear debris. […] Viability assays were performed after 72 hours using the Cell TiterGlo reagent (Promega) according to the manufacturer's instructions, but with a 45 minute incubation to ensure efficient lysis in 3D cultures.

Assay [4] deals with C57BL/6J mice. Put plainly: CCl4 model of liver injury and fibrosis, preventive study. The format is in vivo, mouse. Conditions: JQ1 50 mg/kg IP. On the procedure: as §1, §2, §3
For assay [5], the system named is primary HSCs. Put plainly: qRT-PCR gene expression in primary murine HSCs. The format is cell-based, mouse. Conditions: JQ1 500 nM, RT-qPCR. In general terms: Quantitative PCR measures a nucleic acid by following its amplification.
For assay [6], the system named is pro-fibrotic gene expression (COL1A1) in LX-2 cells. Put plainly: qRT-PCR of pro-fibrotic gene expression in LX-2 cells. Conditions: JQ1 500 nM, 16 hr vs DMSO.
The test system of assay [7] is primary HSCs. Put plainly: Cell proliferation assay (BrdU), primary HSCs. The format is cell-based, mouse. Conditions: JQ1 500 nM. The text has this: BrdU-positive cells were counted under fluorescent microscope (Olympus, IX51).
Assay [8] concerns C57BL/6J mice. Put plainly: Serum alanine aminotransferase (ALT) assay in CCl4 model. Format: in vivo, mouse. Conditions: preventive CCl4 model; JQ1 50 mg/kg IP. On the procedure:
as §1
The ALT activity in mice serum was measured using a kit from Thermo Scientific (TR71121).

The test system of assay [9] is primary murine HSCs. Put plainly: Lipid droplet accumulation assay (BODIPY staining). The format is cell-based, mouse. Conditions: day 6, JQ1 500 nM. The procedure:
Primary murine HSCs were seeded onto chamber slides (Nunc). […] Media was aspirated, cells were washed twice with PBS (Gibco) and fixed in 10% buffered formalin at room temperature for 15 minutes. Fixative was removed and cells were washed three times with PBS. […] Dye was removed and cells were washed three times with PBS, then mounted using Vectastain mounting medium (Vector Labs). Fluorescence was visualized through the GFP filter on a Leica DM5000B fluorescent microscope. Nuclear counterstaining was performed using DAPI (Vector).

The test system of assay [10] is primary murine HSCs. Put plainly: Immunocytochemistry (Acta2) of HSC activation into myofibroblasts. Format: cell-based, mouse. The settings on record: day 6, JQ1 500 nM. The procedure: Primary murine HSCs were seeded onto chamber slides (Nunc). […] Media was aspirated, cells were washed twice with PBS (Gibco) and fixed in 10% buffered formalin at room temperature for 15 minutes. Fixative was removed and cells were washed three times with PBS. The slides were then blocked with 3% BSA and incubated with rabbit anti-ACTA2 antibody (at 1:100 dilution; Abcam) overnight at 4° C. After washing, the slides were incubated for 1 hour with Alexa Fluor546-labeled donkey anti-rabbit IgG antibody (at 1:200 dilution; Invitrogen). Finally, the slides were analyzed for fluorescence using an all-in-one type fluorescent microscope (BioZero BZ-9000; Keyence, Osaka, Japan). Nuclear counterstaining was performed using DAPI (Vector).

Where [11] appears, read: 75 mg/kg JQ1 i.p. daily for 14 days.
Setting [12] is: 75 mg/kg JQ1 i.p. daily for 14 days vs vehicle.

SMILES strings stand for the structures.

Consider `Cc1sc2c(c1C)C(c1ccc(Cl)cc1)=N[C@@H](CC(=O)OC(C)(C)C)c1nnc(C)n1-2` [JQ1, (S)-tert-butyl 2-(4-(4-chlorophenyl)-2,3,9-trimethyl-6H-thieno[3,2-f][1,2,4]triazolo[4,3-a][1,4]diazepin-6-yl)acetate], for which the “progression of liver fibrosis (histological scoring, Sirius red, hydroxyproline, marker gene expression)” value with C57BL/6J mice [1] (CCl4 three weeks, then CCl4/JQ1 co-treatment for three weeks) was “blocked the progression”. Besides, the “CCl4-induced HSC activation (quantitative Acta2 immunohistochemistry)” value with C57BL/6J mice [1] (chronic CCl4) is listed as “dramatically reduced”. In addition, in assay [2] (setting [11]), the “BLI and pancreas weight” value is “significantly reduced”; the “number of phospho-H3+ tumor cells, and number of CD45 and DAPI containing cells” value is “significantly reduced”. In assay [2] (setting [12]), the “decrease in cell proliferation (phospho-H3+)” value is reported as “about 50%”; the “decrease in leukocyte recruitment (CD45)” value is “about 70%”; the “decrease in luciferase light units (tumor cell count, tumor burden)” value is “about 33%”. The “growth of pancreatic cancer cell lines in vitro” value in assay [3] was “significantly reduced”. Further, the “liver fibrosis and markers of HSC activation” value with C57BL/6J mice [4] (CCl4/JQ1 co-treated vs CCl4 mice, four weeks, Sirius red, hydroxyproline, Acta2, Ishak score) is reported as “dramatic reduction”. The “CCl4-induced key fibrotic marker genes in liver (mRNA-Seq)” value in the assay with C57BL/6J mice [4] is given as “significant suppression”. In the assay on primary HSCs [5], the “Ccnd2 and Myc expression” value is “without perturbing”; the “induction of Pdgfrb and Ccnd1 during HSC activation” value is given as “disrupted induction”. Moreover, in assay [6], the “repression of COL1A1” value is listed as 4.5 fold. Besides, in the assay on primary HSCs [7], the “BrdU incorporation into activated HSCs” value was “significant decrease”. Moreover, the “liver injury due to CCl4 assessed by serum ALT” value in the assay with C57BL/6J mice [8] is reported as “not significantly impacted”. Further, the “morphology, Acta2 distribution and lipid content of treated cells” value in the assay on primary murine HSCs [9] is listed as “closely resembled quiescent (day 1) cells”. For the same compound, in the assay on primary murine HSCs [10], the “HSCs transdifferentiation into myofibroblasts, phenotypically (morphology, Acta2 distribution)” value was “dramatically arrested”.
